What was measured:
[1] = molecular target: PI3 kinase isoform γ (Homo sapiens, UniProt P48736); assay: PI3 Kinase TR-FRET assay, isoform γ; type: biochemical; details: read-out: inhibition of PI3 kinase isoform γ, IC50
Method: The ability of compounds of the invention to inhibit PI3K activity was determined in a homogeneous TR-FRET assay using a PI3K assay kit (Millipore, USA; cat #33-016) according to manufacturer's instructions. PI3-Kinases (isoforms α, β, γ and δ) catalyze the phosphorylation of phosphatidylinositol, PIP2 to PIP3 in the presence of ATP and Mg^2+. The PIP3 product is detected by displacement of biotin-PIP3 from an energy transfer complex consisting of Europium labeled anti-GST monoclonal antibody, a GST-tagged PH domain, biotinylated PIP3 and Streptavidin-APC. Excitation of Europium in the complex results in an energy transfer to the APC and a fluorescence emission at 665 nm. The PIP3 product displaces biotin-PIP3 from the complex resulting in a loss of energy transfer and thus a decrease in signal.
To test for the ability of compounds to inhibit the activity of PI3Kα (wild-type), exemplary compounds of formula (I) were dissolved in DMSO and directly distributed into 384-well plates at a volume of 0.5 μL. 14.5 μL of P110/P85α/PIP2 mixture in buffer (obtained from the Millipore kit) containing MgCl2 (40 mM) and DTT (5 mM) was added to compound wells and incubated for 60 minutes at room temperature. P110/P85α was expressed in SF9 insect cells and purified nickel column extraction. Five ng of wild-type P110/P85α was used in the assay. The kinase reaction was started by the addition of ATP. The assay concentrations of both PIP2 and ATP were 10 μM. The reaction mixture was incubated for 30 minutes at room temperature and was terminated by the addition of stop mix and detection mix. Fluorescence was measured at 615 and 665 nm upon excitation at 340 nm in a Victor™ V5 fluorometer (Perkin Elmer, USA). The fluorescence emission ratio at 665 to 615 nm, proportional to the kinase activity, was plotted against the compound concentration to generate dose-response curves and IC50 values were determined using GraphPad Prism® 5 software.
The activity of PI3 kinase isoforms β, γ and δ were assayed in a similar manner to the assay protocol described above for PI3Kα, by substituting the appropriate p110/p85 isoform for the p110α/p85α. Compounds of formula (I) caused inhibition of PI3 kinase isoforms β, γ and δ as determined by these assays. For example, the compounds of Examples 3 and 21 each caused inhibition of PI3 kinase isoform β with IC50 values<500 nM. The compounds of Examples 3, 7, 21, 47, 48 and 49 each caused inhibition of PI3 kinase isoform γ with IC50 values<500 nM. The compounds of Example 3, 7, 47, 48, and 49 caused inhibition of PI3 kinase isoform δ with IC50 values<1 μM.

[2] = tested on: T47D cells; assay: XTT assay for cell viability, T47D cells; type: cell-based; details: Homo sapiens, read-out: inhibition of T47D cell proliferation, IC50
Method: Using a commercial kit from Sigma Aldrich (Catalog #X34251) and following its protocol, PC3 cells in the log phase of growth were employed and seeded at an optimal density of 1000 cell/well on to 96 well plates and incubated for 24 hours followed by the addition of compounds of formula (I) in serial dilutions. Compound dilutions were made in DMSO. The cells were incubated with the compounds of formula (I) for 96 hours and XTT tetrazolium dye (Sigma, USA) was subsequently added and incubated at 37° C. After the color formation, absorbance was measured at 465 nm in a Spectramax® Gemini spectrophotometer. EC50 values were calculated using a sigmoidal dose response curve fit in GraphPad Prism® v5 software. The tested compounds of formula (I) which caused inhibition of PC3 cell proliferation as determined by this assay protocol are shown in Table 2.
XTT assays for cell viability were also determined in U87MG, BT474 cells and T47D cells, in a similar manner to the protocol described above. The compounds cause inhibition of U87MG, BT474 and T47D cell proliferation as determined by these assays. For example, the compounds of Examples 3 and 7 caused inhibition of U87MG, BT474 and T47D cell proliferation with IC50 values<600 nM.

[3] = tested on: pAKT (T308); assay: In vivo PK/PD study, U87MG tumor xenograft, pAKT (T308); details: U87MG tumor-bearing xenograft mice, 50 mg/kg po
Method: (§1) PC3 cells are cultured at 37° C. in a 5% CO2 incubator using Hams F12 K medium. Ten million (10^7) cells are injected subcutaneously to the right flank region of athymic male mice (Harlan, age: 6-7 weeks, weight: about 20 g). Tumor bearing mice are randomized when the tumor volume reaches about 250 mm^3 and three mice are used per each time point. Test compounds of formula (I) are typically formulated in 40% HPCD in 1×PBS, pH 7.4 or in 10% Ethanol/40% Solutol/50% 50 mM aq. methanesulfonic acid and dosed orally at 50 mg/kg single dose (dose volume—10 mL/kg). Plasma and tumor samples are collected at 0 (vehicle control animals), 1, 4 and 24 hours post dosing. Blood is drawn (retro orbital) to a tube containing 0.2% EDTA for plasma collection. […] Tumor and plasma drug concentrations are measured for PK analysis using LC-MS.
(§2) Snap frozen tumor samples are pulverized in a mortar (Belart) containing liquid nitrogen and tumor powder is stored at −80° C. until analysis. […] The detection for pAKT is based on chemiluminescence and pS6RP is based on absorbance. […]
(§3) In vivo pharmacokinetic/pharmacodynamic (PK/PD) studies were carried out in a similar manner using U87MG tumor cells (glioma cancer cell line with a PTEN null mutation) and the corresponding tumor-bearing xenograft mice, and compounds of the invention were determined to be active in this assay. […]

[4] = tested on: pAKT (S473); assay: In vivo PK/PD study, U87MG tumor xenograft, pAKT (S473); details: U87MG tumor-bearing xenograft mice, 50 mg/kg po
Method: as §1, §2, §3

PI3 kinase isoform γ, sequence (P48736 whole entry, the tested form may be a part, canonical isoform): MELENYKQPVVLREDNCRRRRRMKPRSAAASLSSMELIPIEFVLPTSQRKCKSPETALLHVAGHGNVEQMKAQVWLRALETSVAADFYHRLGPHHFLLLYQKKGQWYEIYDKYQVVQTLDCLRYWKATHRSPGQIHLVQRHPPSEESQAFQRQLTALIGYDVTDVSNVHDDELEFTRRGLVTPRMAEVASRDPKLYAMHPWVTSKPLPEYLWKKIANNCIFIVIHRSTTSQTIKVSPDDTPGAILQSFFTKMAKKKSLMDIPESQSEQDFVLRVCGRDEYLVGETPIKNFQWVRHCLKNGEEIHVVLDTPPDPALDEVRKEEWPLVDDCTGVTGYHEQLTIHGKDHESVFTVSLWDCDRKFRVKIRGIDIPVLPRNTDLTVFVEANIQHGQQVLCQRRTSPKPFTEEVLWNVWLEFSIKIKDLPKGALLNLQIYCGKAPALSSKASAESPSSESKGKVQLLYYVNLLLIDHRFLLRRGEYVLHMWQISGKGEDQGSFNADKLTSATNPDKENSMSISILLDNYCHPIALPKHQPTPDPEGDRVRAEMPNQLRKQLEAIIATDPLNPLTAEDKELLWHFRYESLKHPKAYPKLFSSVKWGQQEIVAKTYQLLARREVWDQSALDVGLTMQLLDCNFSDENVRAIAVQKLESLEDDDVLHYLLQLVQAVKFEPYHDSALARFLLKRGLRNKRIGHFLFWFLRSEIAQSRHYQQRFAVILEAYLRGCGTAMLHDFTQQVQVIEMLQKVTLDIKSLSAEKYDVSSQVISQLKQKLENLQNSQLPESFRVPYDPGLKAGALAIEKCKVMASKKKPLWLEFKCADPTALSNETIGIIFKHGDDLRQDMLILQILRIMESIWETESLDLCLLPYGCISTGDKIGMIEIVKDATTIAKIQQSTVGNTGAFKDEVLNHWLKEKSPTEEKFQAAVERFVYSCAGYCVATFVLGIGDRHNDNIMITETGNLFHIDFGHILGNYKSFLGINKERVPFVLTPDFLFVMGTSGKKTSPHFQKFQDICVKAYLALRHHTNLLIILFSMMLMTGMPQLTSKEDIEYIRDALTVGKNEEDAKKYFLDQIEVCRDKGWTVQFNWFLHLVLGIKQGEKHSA

SMILES	IC50 [1]	IC50 [2]	suppression of pAKT (T308) [3]	suppression of pAKT (S473) [4]
Nc1ncc(-c2nc(N3CCOCC3)c3ncc(-c4cccc(NC(=O)C5CC5)c4)cc3n2)cn1 [Example 7, N-(3-(2-(2-Aminopyrimidin-5-yl)-4-morpholinopyrido[3,2-d]pyrimidin-7-yl)-phenyl)cyclopropanecarboxamide]	< 500 nM	< 600 nM	–	–
N#CC1(C(=O)Nc2cccc(-c3cnc4c(N5CCOCC5)nc(-c5cnc(N)nc5)nc4c3)c2)CC1 [Example 61, N-(3-(2-(2-amino-pyrimidin-5-yl)-4-morpholinopyrido[3,2-d]pyrimidin-7-yl)phenyl)-1-cyanocyclopropane-carboxamide]	–	–	suppression	suppression
CC(=O)Nc1cccc(-c2cnc3c(N4CCOCC4)nc(-c4cnc(N)nc4)nc3c2)c1 [Example 3, N-(3-(2-(2-Aminopyrimidin-5-yl)-4-morpholinopyrido[3,2-d]pyrimidin-7-yl)-phenyl)acetamide]	< 500 nM	< 600 nM	suppression	suppression

Reference: patent US9145411B2, “Substituted amino-pyrimidine derivatives” (Asana Biosciences, LLC, priority 2012, dated 2015)
